{"source": "patent US6632449B2", "about": "“Compositions and kits comprising a defined boron compound and methods of their preparation” (The Procter & Gamble Co., priority 2001, dated 2003)", "experiment": "physchem", "details": "saturated aqueous solution of the boron compound", "text": "The pKa of the boron compound utilized herein may be determined as follows. […] Using an auto titrator, titrate the solution according to standard methods. The pKa of the boron compound is the pH at which the inflection point occurs in the resulting titration curve.", "data": [{"smiles": "OB(O)O", "note": "[boric acid]", "values": [{"measurement": "pKa", "result": "~9.2"}]}]}
